# Results: PubChem BioAssay AID1963864 (Molecular Pharmacology Branch, DTP, NCI, 2024)
# Tested on: KRAS PDC multicell spheroid viability
# Assay: Anticancer human tumor 521955-158-R6-J3-PDC patient-derived pancreatic carcinoma cell line growth inhibition [KRAS2]
# Settings: for IC50: curve of first compound; for viability, T/C: stronger effect = lower value
# Source text: Multicellular complex tumor spheroid response to RAS pathway inhibitors in combination with a targeted agents in patient-derived cell lines with oncogenic KRAS variants from multiple cancer types
# A high-throughput screen of multi-cell type tumor spheroids was designed to identify active combinations of targeted small molecules and KRAS pathway inhibitors. Complex spheroids include a stromal component modeled by human endothelial cells (HUVEC) and fibroblasts modeled by human mesenchymal stem cells (MSCs). The concentration ranges selected for each drug and investigational agent were based upon clinically achievable concentrations if the clinical Cmax of the agent was known.
# Compounds. The drugs and investigational agents: BI-3406 (NSC825286), BAY-293 (NSC824723), batoprotafib (TNO155; NSC825523), sotorasib (AMG 510; NSC818433), MRTX1257 (NSC819558), elimusertib (BAY 1895344; NSC800525), molibresib (GSK525762; NSC774829), temuterkib (LY3214996; NSC803410), venetoclax (NSC766270), alisertib (NSC759677), olaparib (NSC753686), talazoparib (NSC767125), erdafitinib (NSC781556), ipatasertib (NSC767898), cabozantinib (NSC761068), nintedanib (NSC756659), abemaciclib (NSC768073), docetaxel (NSC628503), trametinib (NSC758246), and sapanisertib (NSC764658) were obtained from the National Cancer Institute (NCI) Developmental Therapeutics Program Chemical Repository. The FDA-approved anticancer drug set is available from the Developmental Therapeutics Program. […] The stock solutions were prepared in dimethyl sulfoxide (DMSO, Sigma-Aldrich, St. Louis, MO, cat. D2650) at 800-fold the tested concentration and stored at -70 degrees C prior to their use. All drugs and investigational agents were tested over a range starting from a high concentration at or near the clinical Cmax and decreasing in half-log increments. If the clinical Cmax for an agent had not been determined, the highest concentration tested was 10 microM.
# Cell Culture. All cells were maintained in an incubator at 37 degrees C and 5% CO2 with 95% humidity. The PDC lines were cultured according to standard operating procedures established by the NCI PDMR (https://pdmr.cancer.gov/sops/default.htm). Briefly, all PDCs were thawed and cultured in Matrigel-coated flasks prepared with a working solution of 1X Ham's F-12 nutrient mix, without supplementation (Invitrogen, Waltham, MA, cat. 11765054), 100 U/mL penicillin-streptomycin (Invitrogen, cat. 15140122), and 2.5% Matrigel (Corning Inc., Corning, NY, cat. 354248) for the first three passages. All PDCs were cultured in complete DMEM/F-12 media containing advanced DMEM/F-12 (Invitrogen, cat. 12634028), 4.9% defined fetal bovine serum, heat inactivated (HyClone Laboratories Inc., Logan, UT, cat. SH30070.03HI), 389 ng/mL hydrocortisone (Sigma-Aldrich, cat. H4001), 9.7 ng/mL human EGF recombinant protein (Invitrogen, cat. PHG0313), 23.4 microg/mL adenine (Sigma-Aldrich, cat. A2786), 97.3 U/mL penicillin-streptomycin (Invitrogen, cat. 15140122), 1.9 mM L-glutamine (Invitrogen, cat. 25030081), and 9.7 microM Y-27632 dihydrochloride (Tocris Bioscience, Bristol, United Kingdom, cat. 1254). The PDCs were cultured in complete DMEM/F12 media without 9.7 microM Y-27632 dihydrochloride for at least two passages prior to the screen. The established cell line HOP-62 was cultured in RPMI 1640 medium, HEPES (Invitrogen, cat. 22400105) with 10% defined fetal bovine serum (HyClone Laboratories Inc., cat. SH30070.03) and 2 mM L-glutamine (Invitrogen, cat. 25030081). The pooled donor HUVEC were cultured in endothelial cell growth medium 2 (PromoCell, Heidelberg, Germany, cat. C-22011) and the hMSC were cultured in mesenchymal stem cell growth medium 2 (PromoCell, cat. C-28009). For all experiments, HUVEC and hMSC were used at passages </=5, while the malignant cell lines were used at passages </=15. […]
# [1] = second compound 0.1 µM, first compound 0.0316 µM
# [2] = second compound 0.1 µM, first compound 0.1 µM
# [3] = second compound 0.316 µM, first compound 0.0316 µM
# [4] = second compound 0.316 µM, first compound 0.1 µM
# [5] = second compound 1 µM, first compound 0.0316 µM
# [6] = second compound 1 µM, first compound 0.1 µM
# [7] = second compound 3.16 µM, first compound 0.0316 µM
# [8] = second compound 3.16 µM, first compound 0.1 µM
# [9] = second compound 10 µM, first compound 0.0316 µM
# [10] = second compound 10 µM, first compound 0.1 µM
# 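Further: drug exposure lasted seven days.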
# 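Wherever viability, T/C is given: 100% = DMSO vehicle wells and lower means fewer viable cells.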
smiles,measurement,setting,value
CCNC(=O)CC1N=C(c2ccc(Cl)cc2)c2cc(OC)ccc2-n2c(C)nnc21 (stereo not given) + COc1cc2nc(C)nc(NC(C)c3cc(N)cc(C(F)(F)F)c3)c2cc1OC1CCOC1,IC50,second compound 0.1 µM,> 10000 nM
same,IC50,second compound 0.316 µM,> 10000 nM
same,IC50,second compound 1 µM,> 10000 nM
same,IC50,second compound 3.16 µM,> 10000 nM
same,IC50,second compound 10 µM,38.2 nM
same,"viability, T/C",[1],91.4%
same,"viability, T/C",[2],87.3%
same,"viability, T/C","second compound 0.1 µM, first compound 0.316 µM",75.6%
same,"viability, T/C","second compound 0.1 µM, first compound 1 µM",75.2%
same,"viability, T/C","second compound 0.1 µM, first compound 3.16 µM",70.5%
same,"viability, T/C","second compound 0.1 µM, first compound 10 µM",75.8%
same,"viability, T/C",[3],95.6%
same,"viability, T/C",[4],103%
same,"viability, T/C","second compound 0.316 µM, first compound 0.316 µM",76.3%
same,"viability, T/C","second compound 0.316 µM, first compound 1 µM",72.4%
same,"viability, T/C","second compound 0.316 µM, first compound 3.16 µM",68.5%
same,"viability, T/C","second compound 0.316 µM, first compound 10 µM",73.1%
same,"viability, T/C",[5],83.7%
same,"viability, T/C",[6],86.2%
same,"viability, T/C","second compound 1 µM, first compound 0.316 µM",74.1%
same,"viability, T/C","second compound 1 µM, first compound 1 µM",65.6%
same,"viability, T/C","second compound 1 µM, first compound 3.16 µM",69.5%
same,"viability, T/C","second compound 1 µM, first compound 10 µM",66.8%
same,"viability, T/C",[7],70.8%
same,"viability, T/C",[8],71.3%
same,"viability, T/C","second compound 3.16 µM, first compound 0.316 µM",66.5%
same,"viability, T/C","second compound 3.16 µM, first compound 1 µM",73.8%
same,"viability, T/C","second compound 3.16 µM, first compound 3.16 µM",60.7%
same,"viability, T/C","second compound 3.16 µM, first compound 10 µM",75.4%
same,"viability, T/C",[9],48.7%
same,"viability, T/C",[10],52%
same,"viability, T/C","second compound 10 µM, first compound 0.316 µM",39.5%
same,"viability, T/C","second compound 10 µM, first compound 1 µM",34.2%
same,"viability, T/C","second compound 10 µM, first compound 3.16 µM",40%
same,"viability, T/C","second compound 10 µM, first compound 10 µM",28.4%
Cn1ncnc1[C@H]1c2n[nH]c(=O)c3cc(F)cc(c23)N[C@@H]1c1ccc(F)cc1 + COc1cc2nc(C)nc(NC(C)c3cc(N)cc(C(F)(F)F)c3)c2cc1OC1CCOC1,IC50,second compound 0.1 µM,> 100 nM
same,IC50,second compound 0.316 µM,> 100 nM
same,IC50,second compound 1 µM,> 100 nM
same,IC50,second compound 3.16 µM,> 100 nM
same,IC50,second compound 10 µM,< 0.316 nM
same,"viability, T/C","second compound 0.1 µM, first compound 0.000316 µM",96.2%
same,"viability, T/C","second compound 0.1 µM, first compound 0.001 µM",94.9%
same,"viability, T/C","second compound 0.1 µM, first compound 0.00316 µM",86.8%
same,"viability, T/C","second compound 0.1 µM, first compound 0.01 µM",87.8%
same,"viability, T/C",[1],94%
same,"viability, T/C",[2],93.1%
same,"viability, T/C","second compound 0.316 µM, first compound 0.000316 µM",90.5%
same,"viability, T/C","second compound 0.316 µM, first compound 0.001 µM",92.6%
same,"viability, T/C","second compound 0.316 µM, first compound 0.00316 µM",86.7%
same,"viability, T/C","second compound 0.316 µM, first compound 0.01 µM",87.8%
same,"viability, T/C",[3],87.3%
same,"viability, T/C",[4],84.2%
same,"viability, T/C","second compound 1 µM, first compound 0.000316 µM",83.2%
same,"viability, T/C","second compound 1 µM, first compound 0.001 µM",78.3%
same,"viability, T/C","second compound 1 µM, first compound 0.00316 µM",80.5%
same,"viability, T/C","second compound 1 µM, first compound 0.01 µM",86.6%
same,"viability, T/C",[5],82.3%
same,"viability, T/C",[6],82.6%
same,"viability, T/C","second compound 3.16 µM, first compound 0.000316 µM",68.2%
same,"viability, T/C","second compound 3.16 µM, first compound 0.001 µM",73.9%
same,"viability, T/C","second compound 3.16 µM, first compound 0.00316 µM",71.5%
same,"viability, T/C","second compound 3.16 µM, first compound 0.01 µM",72.3%
same,"viability, T/C",[7],71.8%
same,"viability, T/C",[8],74.9%
same,"viability, T/C","second compound 10 µM, first compound 0.000316 µM",23.4%
same,"viability, T/C","second compound 10 µM, first compound 0.001 µM",27.8%
same,"viability, T/C","second compound 10 µM, first compound 0.00316 µM",9.47%
same,"viability, T/C","second compound 10 µM, first compound 0.01 µM",25.1%
same,"viability, T/C",[9],8.29%
same,"viability, T/C",[10],16%
